Results: patent US8951986B2, “Salts of HIV inhibitor compounds” (Gilead Sciences, Inc., priority 2008, dated 2015)

Assays:
HIV-1 IIIB = assay: Anti-HIV-1 activity in MT-2 cells, virus-induced cytopathic effect (CellTiter-Glo); type: cell-based; conditions: MT-2 cells infected with HIV-1 IIIB, 5-day incubation; mean ± SD
Experimental: MT-2 cells were maintained in RPMI-1640 medium supplemented with antibiotics and 10% fetal bovine serum (FBS). MT-2 cells were infected with HIV-1 IIIB at a multiplicity of infection (moi) of 0.01 and added to 96-well plates with serial dilutions of tested compounds at a density of 20,000 cells/well. […] Activity against NRTI-resistant mutants was determined in parallel with wild-type control virus and fold change in EC50 was calculated.

HIV-1 BaL = assay: Anti-HIV-1 activity in activated PBMC, p24 ELISA; type: cell-based; conditions: activated PBMC infected with HIV-1 BaL, 5 days, mean ± SD
Experimental: Activated PBMC were infected with HIV-1 BaL for 3 hours, washed, seeded into 96-well plates (250,000 cells/well) and incubated with serial dilutions of tested compounds for 5 days, at which point cell supernatants were collected and virus production was determined using commercial HIV-1 p24 ELISA (Beckman Coulter, Miami, Fla.).

Nc1ncnc2c1ncn2[C@@H]1O[C@H](OCP(=O)(O)O)C=C1F [Parent Compound]
EC50 (HIV-1 IIIB): 10.6 ± 2.4 µM | EC50 (HIV-1 BaL): 8.5 ± 7.7 µM
